Test results taken from US5137905A, “Heterocyclic acetylenic amines having central nervous system activity” (The Upjohn Company, priority 1991, dated 1992).
Read-outs that look alike come from different tables or passages of the source.

Tests used:
HCl-induced writhing = assay: HCl writhing protection (analgesic activity); format: in vivo, CF1 mice; conditions: Mus musculus, sc, read-out: CNS Id (ED50 mg/kg) HCl Writh. Protect
Protocol: For determination of analgesic activity, the test compound was injected subcutaneously into a group of four CF1 mice. Thirty minutes later the mice were injected i.p. with 0.15% HCl, 10 ml./kg. Mice were then placed in plastic boxes and observed for fifteen minutes to record the number of animals failing to writhe.

CNS cholinergic receptor [1] = conditions: tritiated quinuclidine benzylate (QNB); read-out: CNS Cholinergic Receptor Binding Assays K1 QNB
CNS cholinergic receptor [2] = assay: CNS cholinergic receptor binding, oxotremorine M ligand; conditions: tritiated oxotremorine M; read-out: CNS Cholinergic Receptor Binding Assays K1 Oxotremorine
[3] = system: oxotremorine-induced body tremor; assay: Oxotremorine antagonist assay (body tremor); format: in vivo, mice; conditions: Mus musculus, ip; read-out: Oxot. Antagonist Tremor (ED50)
Protocol: Oxotremorine antagonist assays were performed on groups of six mice weighing 18-22 g. Each was dosed intraperitoneally with the test compound prepared in 0.25% methylcellulose and were placed in individual cages. Twenty minutes later the mice were injected subcutaneously with 0.5 mg/kg of oxotremorine dissolved in saline. Ten minutes later the mice were scored for body tremor. Doses of the compound under study began at 100 mg/kg and were decreased at a 0.5 log interval until no responders were obtained.

[4] = system: amnesia produced by scopolamine; assay: Antagonism of scopolamine-induced amnesia, passive avoidance; format: in vivo; conditions: i.p. test compound, 1 mg/kg s.c. scopolamine hydrobromide, mouse step through passive avoidance
Excerpt: For antagonism of amnesia produced by scopolamine a one trial, step through passive avoidance paradigm was used. In this procedure a mouse was placed on a square platform adjoining a darkened chamber. The mouse could enter the chamber through a hole above the platform. Following placement on the platform, the mouse was enclosed by a clear plexiglas cover which mildly restricted movement, limiting the animal to turning around and partial rearing. A sliding door was opened after this, exposing the entrance to the chamber. A timer was started at the same time the door was opened, in order to record latency to enter the chamber. Upon complete entry into the darkened box, the door was closed behind the mouse and a 1 mA, 2 sec, direct current shock applied to the feet of the mouse through the grid floor. The mouse was immediately removed from the chamber and returned to a 24 hr group holding cage.
Drug testing involved intraperitoneal injection of the test compound followed 15 min later by subcutaneous injection of 1 mg/kg scopolamine hydrobromide. […] The latency for each mouse to enter the chamber was recorded, with a cut-off at 180 sec.
Median group latencies to enter the chamber during both training and testing were recorded and a Wilcoxon rank sum test applied to data comparing the parallel "scopolamine only" group with all drug combination groups on testing. […]

[5] = versus prior oxotremorine compounds; U.S. Pat. No. 3,925,411; cited from earlier work
cholinergic mechanism = conditions: extremely low doses; cited from earlier work
[6] = ED50, s.c. in CF1 mice, 30 min before i.p. 0.15% HCl

CC1CN(CC#CCN2CCCC2)C(=O)N1C(=O)OC(C)(C)C (stereo not drawn) [Compound 17, t-Butyl 5-methyl-2-oxo-3-[4-(1-pyrrolidinyl)-2-butynyl]-1-imidazolidinecarboxylate]
ED50 (HCl-induced writhing; [6]): > 25 mg/kg | Ki (CNS cholinergic receptor [1]): 2700 nM | Ki (CNS cholinergic receptor [2]): 810 nM | ED50 [3]: > 100 mg/kg

CC1CN(C(=O)OC(C)(C)C)C(=O)N1CC#CCN1CCCC1 (stereo not drawn) [Compound 18, t-Butyl 4-methyl-2-oxo-3-[4-(1-pyrrolidinyl)-2-butynyl]-1-imidazolidinecarboxylate]
ED50 (HCl-induced writhing; [6]): 25 mg/kg | Ki (CNS cholinergic receptor [1]): 820 nM | Ki (CNS cholinergic receptor [2]): 180 nM | ED50 [3]: > 30 mg/kg

CC1CN(C)C(=O)N1CC#CCN1CCCC1 (stereo not drawn) [Compound 19, 1,4Dimethyl-3-[4-(1-pyrrolidinyl)-2-butynyl]-2-imidazolidinone]
ED50 (HCl-induced writhing; [6]): > 13 mg/kg | Ki (CNS cholinergic receptor [1]): 20 nM | Ki (CNS cholinergic receptor [2]): 4 nM | ED50 [3]: 6.6 mg/kg

O=C1N(CC#CCN2CCCC2)CCN1c1ccccc1 [Compound 20, 1-Phenyl-3-[4-(1-pyrrolidinyl)-2-butynyl]-2-imidazolidinone]
ED50 (HCl-induced writhing; [6]): > 25 mg/kg | Ki (CNS cholinergic receptor [1]): 170 nM | Ki (CNS cholinergic receptor [2]): 69 nM | ED50 [3]: > 30 mg/kg

CN(C)CC#CCN1CCN(c2ccccc2)C1=O [Compound 21, 1-[4-(Dimethylamino)-2-butynyl]-3-phenyl-2-imidazolidinone]
ED50 (HCl-induced writhing; [6]): > 50 mg/kg | Ki (CNS cholinergic receptor [1]): > 10000 nM | Ki (CNS cholinergic receptor [2]): 840 nM | ED50 [3]: > 100 mg/kg

Cn1ccn(CC#CCN2CCCC2)c1=O [Compound 36, 1,3-Dihydro-1-methyl-3-[4-(1-pyrrolidinyl)-2-butynyl]-2H-imidazol-2-one]
ED50 (HCl-induced writhing; [6]): 1.3 mg/kg | Ki (CNS cholinergic receptor [1]): 510 nM | Ki (CNS cholinergic receptor [2]): 7 nM | ED50 [3]: > 10 mg/kg | antagonism of amnesia produced by scopolamine [4]: the most active

CC(C)(C)OC(=O)N1CCC[C@@H]1C#CCN1CCCC1 [Compound 49A, (R)-t-Butyl 2-[3-(1-pyrrolidinyl)-1-propynyl]-1-pyrrolidine-carboxylate]
ED50 (HCl-induced writhing; [6]): 13 mg/kg | Ki (CNS cholinergic receptor [1]): 430 nM | Ki (CNS cholinergic receptor [2]): 20 nM | ED50 [3]: 100 mg/kg

CC(C)(C)OC(=O)N1CCC[C@H]1C#CCN1CCCC1 [Compound 49B, (S)-t-Butyl 2-[3-(1-pyrrolidinyl)-1-propynyl]-1-pyrrolidinecarboxylate]
ED50 (HCl-induced writhing; [6]): > 50 mg/kg | Ki (CNS cholinergic receptor [1]): > 10000 nM | Ki (CNS cholinergic receptor [2]): 3500 nM | ED50 [3]: > 100 mg/kg

CN(C)CC#C[C@H]1CCCN1C(=O)OC(C)(C)C [Compound 49C, (R)-t-Butyl 2-[3-(dimethylamino)-1-propynyl]-1-pyrrolidinecarboxylate]
ED50 (HCl-induced writhing; [6]): > 50 mg/kg | Ki (CNS cholinergic receptor [1]): > 10000 nM | Ki (CNS cholinergic receptor [2]): 44 nM | ED50 [3]: > 100 mg/kg

CN(C)CC#C[C@H]1CCCN1 [Compound 50C, (R)-N,N-dimethyl-3-(2-pyrrolidinyl)-2-propyn-1-amine]
ED50 (HCl-induced writhing): > 50 mg/kg | Ki (CNS cholinergic receptor [1]): > 1000 nM | Ki (CNS cholinergic receptor [2]): 970 nM | ED50 [3]: > 100 mg/kg

CN(C)CC#C[C@@H]1CCCN1 [Compound 50D, (S)-N,N-dimethyl-3-(2-pyrrolidinyl)-2-propyn-1-amine]
ED50 (HCl-induced writhing; [6]): > 50 mg/kg | Ki (CNS cholinergic receptor [1]): > 10000 nM | Ki (CNS cholinergic receptor [2]): > 10000 nM | ED50 [3]: > 100 mg/kg

CC(=O)N1CCC[C@@H]1C#CCN(C)C [Compound 51C, (R)-1-Acetyl-2-[3-(dimethylamino)-1-propynyl]pyrrolidine]
ED50 (HCl-induced writhing; [6]): > 50 mg/kg | Ki (CNS cholinergic receptor [1]): > 10000 nM | Ki (CNS cholinergic receptor [2]): 130 nM | ED50 [3]: > 100 mg/kg

CC(=O)N1CCC[C@H]1C#CCN(C)C [Compound 51D, (S)-1-Acetyl-2-[3-(dimethylamino)-1-propynyl]pyrrolidine]
ED50 (HCl-induced writhing; [6]): > 50 mg/kg | Ki (CNS cholinergic receptor [1]): > 10000 nM | Ki (CNS cholinergic receptor [2]): 10000 nM | ED50 [3]: > 100 mg/kg

CN(C)C(=O)N1CCC[C@@H]1C#CCN1CCCC1 [Compound 51E, (R)-N,N-Dimethyl 2-[3-(1-pyrrolidinyl)-1-propynyl]-1-pyrrolidinecarboxamide]
ED50 (HCl-induced writhing; [6]): > 50 mg/kg | Ki (CNS cholinergic receptor [1]): 43 nM | Ki (CNS cholinergic receptor [2]): 12 nM | ED50 [3]: 25 mg/kg

CN(C)C(=O)N1CCC[C@H]1C#CCN1CCCC1 [Compound 51F, (S)-N,N-Dimethyl 2-[3-(1-pyrrolidinyl)-1-propynyl]-1-pyrrolidinecarboxamide]
ED50 (HCl-induced writhing; [6]): > 50 mg/kg | Ki (CNS cholinergic receptor [1]): 2000 nM | Ki (CNS cholinergic receptor [2]): 460 nM | ED50 [3]: > 100 mg/kg

CNC(=O)N1CCC[C@@H]1C#CCN1CCCC1 [Compound 51G, (R)-N-Methyl 2-[3-(1-pyrrolidinyl)-1-propynyl]-1-pyrrolidinecarboxamide]
ED50 (HCl-induced writhing; [6]): > 50 mg/kg | Ki (CNS cholinergic receptor [1]): > 10000 nM | Ki (CNS cholinergic receptor [2]): 240 nM | ED50 [3]: > 100 mg/kg

NC(=O)N1CCC[C@@H]1C#CCN1CCCC1 [Compound 51H, (R)-2-[3-(1-pyrrolidinyl)-1-propynyl]-1-pyrrolidinecarboxamide]
ED50 (HCl-induced writhing; [6]): > 50 mg/kg | Ki (CNS cholinergic receptor [1]): > 10000 nM | Ki (CNS cholinergic receptor [2]): 440 nM | ED50 [3]: > 100 mg/kg

N#CN1CCC[C@@H]1C#CCN1CCCC1 [Compound 51I, (R)-2-[3-(1-pyrrolidinyl)-1-propynyl]-1-pyrrolidinecarbonitrile]
ED50 (HCl-induced writhing; [6]): 25 mg/kg | Ki (CNS cholinergic receptor [1]): > 10000 nM | Ki (CNS cholinergic receptor [2]): 310 nM | ED50 [3]: > 30 mg/kg

COC(=O)N1CCC[C@@H]1C#CCN1CCCC1 [Compound 51J, (R)-Methyl 2-[3-(1-pyrrolidinyl)-1-propynyl]-1-pyrrolidinecarboxylate]
ED50 (HCl-induced writhing; [6]): 11 mg/kg | Ki (CNS cholinergic receptor [1]): 460 nM | Ki (CNS cholinergic receptor [2]): 57 nM | ED50 [3]: > 100 mg/kg

COC(=O)N1CCC[C@H]1C#CCN1CCCC1 [Compound 51K, (S)-Methyl 2-[3-(1-pyrrolidinyl)-1-propynyl]-1-pyrrolidinecarboxylate]
ED50 (HCl-induced writhing; [6]): > 50 mg/kg | Ki (CNS cholinergic receptor [1]): 220 nM | Ki (CNS cholinergic receptor [2]): 130 nM | ED50 [3]: 97 mg/kg

CCOC(=O)N1CCC[C@@H]1C#CCN1CCCC1 [Compound 51L, (R)-Ethyl 2-[3-(1-pyrrolidinyl)-1-propynyl]-1-pyrrolidinecarboxylate]
ED50 (HCl-induced writhing; [6]): > 50 mg/kg | Ki (CNS cholinergic receptor [1]): 760 nM | Ki (CNS cholinergic receptor [2]): 50 nM | ED50 [3]: > 100 mg/kg

O=C1CCCN1CCC#CCN1CCCC1 [N-(5-pyrrolidino-3-pentynyl)-pyrrolidin-2-one]
half life [5]: increased half life over prior oxotremorine compounds

O=C1CCCN1CC#CCN1CCCC1 [oxotremorine, 1-[4-(1-pyrrolidinyl-2-butynyl)-2-pyrrolidinone]]
tremors and spasticity in laboratory animals (cholinergic mechanism): induces tremors and spasticity in laboratory animals
